Data reported in patent US10517933B2, “Method of treating androgen receptor negative prostate tumors and their metastases” (DREXEL UNIVERSITY, priority 2015, dated 2019).
Entries after “also recorded” stand apart in the source; their conditions may differ.

How the values were obtained:
interleukin-1β = details: cited from earlier work
[1] = tested on: other members of the interleukin-1 family, including interleukin-1 alpha; details: cited from earlier work
[2] = tested on: mouse models of acute gout; details: in vivo; cited from earlier work
[3] = tested on: AR(−)/IL1β(+) human prostate cancer cells; experiment: skeletal metastasis model: human prostate cancer cells inoculated via the left cardiac ventricle of mice; format: in vivo, mouse; details: subcutaneous anakinra from 24 hours before inoculation, then daily, FIGS. 3A-3B
Method: Male C.B17-SC mice (Taconic) at six to eight weeks of age were anesthetized with ketamine (80 mg/kg) and xylazine (10 mg/kg) prior being inoculated with cancer cells via the left cardiac ventricle. For anakinra treatment, animals received an initial subcutaneous dose of vehicle (PBS) or anakinra (Swedish Orphan Biovitrum) 24 hours prior to cancer cell inoculation, then additional doses at the time of xenograft and daily thereafter until sacrifice.
Prior to each weekly imaging session, animals were injected IP with 150 mg/kg D-Luciferin (PerkinElmer) and allowed to rest for ten minutes, then anesthetized using 3% isoflurane and transferred to the chamber of an IVIS Lumina XR (PerkinElmer), where they received 2% isoflurane throughout image acquisition. […]
Fluorescent images of skeletal metastases were collected as described in Liu et al., 2013, Cancer Res. 73:3297-305. In experiments assessing arrival/colonization of the bone, animals were sacrificed and femora and tibia were imaged and processed using Nuance software and a standardized spectral library and total GFP-positive DTCs counted in the knee joint of each animal. Lung tissues from the same animals were sectioned at 80 μm at intervals across the organ and images of five random fields analyzed as described. […]

[4] = tested on: human bone mesenchymal stem cells; experiment: induction of Carcinoma Associated Fibroblasts phenotype in human bone mesenchymal stem cells by IL1β or PC3-ML conditioned medium; format: cell-based; details: hMSCs exposed to IL1β or conditioned medium from PC3-ML cells
Method: DU-145, 22Rv1. LNCaP, and VCaP human prostate cancer cell lines were purchased from ATCC: the PC3-ML cell line was derived from the parental PC-3 cell line as described in Wang M, Stearns M E, Isolation and characterization of PC-3 human prostatic tumor sublines which preferentially metastasize to select organs in S.C.I.D. mice. Differentiation. 1991; 48:115-25. All cell lines were authenticated by short tandem repeat profiling by IDEXX Radil and/or DDC Medical. Cells were cultured in Dulbecco's Modified Eagle Medium (DU-145, VCaP, and PC3-ML) or RPMI-1460 (22Rv1 and LNCaP) containing 10% fetal bovine serum and 0.1% gentamicin. Bone marrow-derived Human Mesenchymal Stem cells (Lonza) were used between passage 5 and 8 and cultured in α-MEM supplemented with 10% FBS, 1 ng/ml bFGF (R&D), and 0.1% gentamicin. Each cell line was cultured at 37° C. and 5% CO2 and discarded 10 passages following thawing. […]
Cell lysates were obtained and Western Blotting analysis was performed as previously described. […] Chemiluminescent signals were obtained using SuperSignal West Femto substrate (Pierce) and detected with the Fluorochem 8900 imaging system and related software. […]

**Q.** For `CSc1ccc(-c2nn(Cc3ccccc3)c(=O)cc2-c2ccc(Cl)cc2)cc1` [K-832, 2-benzyl-5-(4-chlorophenyl)-6-[4-(methylthio)phenyl]-2H-pyridazin-3-one], which “inhibitory activity against production of interleukin-1β” value (interleukin-1β) is on record?
**A.** high inhibitory activity

**Q.** Which “cross-reactivity with other members of the interleukin-1 family” value [1] does the source give for “Canakinumab: a human monoclonal antibody targeted at interleukin-1 beta” here?
**A.** no cross-reactivity

**Q.** With “XOMA-052: a potent anti-IL1β humanized neutralizing antibody” as the compound, how does the “activity in mouse models of acute gout” value [2] read?
**A.** active

**Q.** With “anakinra: recombinant, non-glycosylated version of human IL1 receptor antagonist prepared from cultures of genetically modified E. coli” as the compound, how does the “progression at the skeletal level of human prostate cancer cells (bone metastatic tumor burden)” value [3] read?
**A.** significantly impaired; also recorded: much less prone to skeletal colonization

**Q.** And the “morphological changes in alpha smooth muscle actin (CAF phenotype)” value ([4]; FIG. 4A)?
**A.** inhibited

**Q.** What about the “expression of the S100 A4 marker (CAF phenotype)” value ([4]; FIG. 4B) of the same compound?
**A.** inhibited
